Reference: patent publication US20240174723A1, “STAPLED ANTIMICROBIAL PEPTIDES (STAMPS) AND USES THEREOF” (Lytica Therapeutics, Inc., priority 2021, published 2024)
Converted amounts (≈) assume the structure as drawn. Positions of bridges follow the written chain, without caps; N, C: chain ends. Non-standard residues stand in square brackets, D forms with d. Residues, ends and D or L forms follow the SMILES beside them. S5 = C=CCCC[C@](C)(N)C(=O)O; PEG3 = NCCOCCOCCOCCC(=O)O; Dap = NC[C@H](N)C(=O)O; PEG2 = NCCOCCOCCC(=O)O; PEG1 = NCCOCCC(=O)O

Legend:
in vitro [1] = format: cell-based; conditions: human
Summary of the method: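 RPTEC or HepG2 cells plated overnight, given fresh media, then serial StAMP dilutions (from 5 mg/mL water stock) or vehicle at 37 °C. Cytotoxicity read as LDH release into media, absorbance 490 nm; renal toxicity after 90 min, liver toxicity after 48 h incubation.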

S. aureus = format: cell-based, Staphylococcus aureus
Summary of the method: (§1)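 StAMP peptides were tested by CLSI-adapted broth microdilution in MHB or cation-adjusted MHB II, final inoculum 5×10^5 CFU/ml from log-phase cultures. After 20-24 h at 37° C, MIC was taken as the lowest peptide concentration without visible growth.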

A. baumannii = format: cell-based, Acinetobacter baumannii
Summary of the method: as §1

in vitro [2] = format: cell-based; conditions: human, Inhibitory Concentration at 50% Cytotoxicity (IC50) Human Liver Cells (HepG2)
Summary of the method: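 HepG2 cells in EMEM with 10% FBS, allowed 4 h to attach, then exposed to serial dilutions of StAMPs (from a 5 mg/mL water stock) or vehicle. After 48 h at 37 °C, viability read by CellTiter-Glo luminescence.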

E. coli = format: cell-based, Escherichia coli
Summary of the method: as §1

P. aeruginosa = format: cell-based, Pseudomonas aeruginosa
Summary of the method: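 Broth microdilution adapted from CLSI in MHB or cation-adjusted MHB; log-phase P. aeruginosa at 5×10^5 CFU/ml final with serially diluted stapled peptides. Incubated 20-24 h at 37 °C; MIC is the lowest concentration without visible growth.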

K. pneumoniae = format: cell-based, Klebsiella pneumoniae
Summary of the method: as §1

Structure (SMILES)	IC50 at 90 min (in vitro [1]) [µg/mL]	Minimum Inhibitory Concentration (MIC) S. aureus (S. aureus) [µg/mL]	Minimum Inhibitory Concentration (MIC) A. baumannii (A. baumannii) [µg/mL]	Minimum Inhibitory Concentration (MIC) E. coli (E. coli) [µg/mL]	Minimum Inhibitory Concentration (MIC) P. aeruginosa (P. aeruginosa) [µg/mL]	Minimum Inhibitory Concentration (MIC) K. pneumoniae (K. pneumoniae) [µg/mL]	IC50 at 48 hours (in vitro [2]) [µg/mL]
CC(C)[C@@H]1NC(=O)[C@@](C)(NC(=O)[C@H](C)NC(=O)[C@H](CN)NC(=O)CNC(=O)[C@H](Cc2ccccc2)NC(=O)[C@H](CN)NC(=O)[C@H](CN)NC(=O)[C@H](CN)NC(=O)[C@H](CN)NC(=O)[C@H](CN)NC(=O)[C@]2(C)CCCC=CCCC[C@](C)(NC(=O)CN)C(=O)NCC(=O)N[C@@H](CN)C(=O)N[C@@H](Cc3ccccc3)C(=O)N2)CCCC=CCCC[C@@](C)(C(=O)N[C@@H](C)C(=O)N[C@@H](CN)C(=O)N[C@@H](CN)C(N)=O)NC(=O)[C@H](CCC(=O)O)NC(=O)CNC1=O [compound 25] (H-G[S5]G[Dap]F[S5][Dap][Dap][Dap][Dap][Dap]FG[Dap]A[S5]VGE[S5]A[Dap][Dap]-NH2; staple 2-6, 16-20)	> 800	>64	32	4	4	16	> 200
CC(C)[C@@H]1NC(=O)[C@@](C)(NC(=O)[C@H](C)NC(=O)[C@H](CCCCN)NC(=O)CNC(=O)[C@H](Cc2ccccc2)NC(=O)[C@H](CCCCN)NC(=O)[C@H](CCCCN)NC(=O)[C@H](CCCCN)NC(=O)[C@H](Cc2c[nH]c3ccccc23)NC(=O)[C@H](Cc2c[nH]cn2)NC(=O)[C@]2(C)CCCC=CCCC[C@](C)(NC(=O)CN)C(=O)NCC(=O)N[C@@H](CCCCN)C(=O)N[C@@H](Cc3ccccc3)C(=O)N2)CCCC=CCCC[C@@](C)(C(=O)N[C@@H](C)C(=O)N[C@@H](CCCCN)C(=O)N[C@@H](CCCCN)C(N)=O)NC(=O)[C@H](CCC(=O)O)NC(=O)CNC1=O [compound 61] (H-G[S5]GKF[S5]HWKKKFGKA[S5]VGE[S5]AKK-NH2; staple 2-6, 16-20)	150 (≈ 57 µM)	>64	4	8	8	64	> 200
CC(C)[C@@H]1NC(=O)[C@@](C)(NC(=O)[C@H](CCCCN)NC(=O)[C@H](CCCCN)NC(=O)[C@H](CCCCN)NC(=O)[C@H](CCCCN)NC(=O)[C@H](CCCCN)NC(=O)[C@]2(C)CCCC=CCCC[C@](C)(NC(=O)CN)C(=O)NCC(=O)N[C@@H](CCCCN)C(=O)N[C@@H](Cc3ccccc3)C(=O)N2)CCCC=CCCC[C@@](C)(C(=O)N[C@@H](C)C(=O)N[C@@H](CCCCN)C(=O)N[C@@H](CCCCN)C(N)=O)NC(=O)[C@H](CCC(=O)O)NC(=O)CNC1=O [compound 70] (H-G[S5]GKF[S5]KKKKK[S5]VGE[S5]AKK-NH2; staple 2-6, 12-16)	125 (≈ 57.8 µM)	>64	16	4	4	4	102 (≈ 47.2 µM)

Continued, in another order:

IC50 at 90 min (in vitro [1]) [µg/mL]	Minimum Inhibitory Concentration (MIC) S. aureus (S. aureus) [µg/mL]	Minimum Inhibitory Concentration (MIC) A. baumannii (A. baumannii) [µg/mL]	Minimum Inhibitory Concentration (MIC) E. coli (E. coli) [µg/mL]	Minimum Inhibitory Concentration (MIC) P. aeruginosa (P. aeruginosa) [µg/mL]	Minimum Inhibitory Concentration (MIC) K. pneumoniae (K. pneumoniae) [µg/mL]	Structure (SMILES)	IC50 at 48 hours (in vitro [2]) [µg/mL]
> 200	>64	4	4	4	>64	CC(C)[C@@H]1NC(=O)[C@@](C)(NC(=O)[C@H](C)NC(=O)[C@H](CCCCN)NC(=O)CNC(=O)[C@H](Cc2ccccc2)NC(=O)[C@H](CCCCN)NC(=O)[C@H](CCCCN)NC(=O)[C@H](CCCCN)NC(=O)[C@H](CCCCN)NC(=O)[C@H](Cc2c[nH]cn2)NC(=O)[C@]2(C)CCCC=CCCC[C@](C)(NC(=O)CN)C(=O)NCC(=O)N[C@@H](CO)C(=O)N[C@@H](Cc3ccccc3)C(=O)N2)CCCC=CCCC[C@@](C)(C(=O)N[C@@H](C)C(=O)N[C@@H](CCCCN)C(=O)N[C@@H](CCCCN)C(N)=O)NC(=O)[C@H](CCC(=O)O)NC(=O)CNC1=O [compound 5] (H-G[S5]GSF[S5]HKKKKFGKA[S5]VGE[S5]AKK-NH2; staple 2-6, 16-20)	> 200
671 (≈ 242 µM)	>64	2	2	4	4	CC(C)[C@@H]1NC(=O)[C@@](C)(NC(=O)[C@H](C)NC(=O)[C@H](CCCCN)NC(=O)CNC(=O)[C@H](Cc2ccccc2)NC(=O)[C@H](CCCCN)NC(=O)[C@H](CCCCN)NC(=O)[C@H](CCCCN)NC(=O)[C@H](CCCCN)NC(=O)[C@H](CCCCN)NC(=O)[C@]2(C)CCCC=CCCC[C@](C)(NC(=O)CN)C(=O)NCC(=O)N[C@@H](CCCCN)C(=O)N[C@@H](Cc3ccccc3)C(=O)N2)CCCC=CCCC[C@@](C)(C(=O)N[C@@H](C)C(=O)N[C@@H](CCCCN)C(=O)N[C@@H](CCCCN)C(=O)NCCOCCOCCOCCC(N)=O)NC(=O)[C@H](CCC(=O)O)NC(=O)CNC1=O [compound 73] (H-G[S5]GKF[S5]KKKKKFGKA[S5]VGE[S5]AKK[PEG3]-NH2; staple 2-6, 16-20)	407 (≈ 147 µM)
200 (≈ 74.6 µM)	>64	2	2	4	4	CC(C)[C@@H]1NC(=O)[C@@](C)(NC(=O)[C@H](C)NC(=O)[C@H](CCCCN)NC(=O)CNC(=O)[C@H](Cc2ccccc2)NC(=O)[C@H](CCCCN)NC(=O)[C@H](CCCCN)NC(=O)[C@H](CCCCN)NC(=O)[C@H](CCCCN)NC(=O)[C@H](CCCCN)NC(=O)[C@]2(C)CCCC=CCCC[C@](C)(NC(=O)CN)C(=O)NCC(=O)N[C@@H](CCCCN)C(=O)N[C@@H](Cc3ccccc3)C(=O)N2)CCCC=CCCC[C@@](C)(C(=O)N[C@@H](C)C(=O)N[C@@H](CCCCN)C(=O)N[C@@H](CCCCN)C(=O)NCCOCCC(N)=O)NC(=O)[C@H](CCC(=O)O)NC(=O)CNC1=O [compound 71] (H-G[S5]GKF[S5]KKKKKFGKA[S5]VGE[S5]AKK[PEG1]-NH2; staple 2-6, 16-20)	247 (≈ 92.2 µM)
200 (≈ 73.4 µM)	>64	2	2	4	4	CC(C)[C@@H]1NC(=O)[C@@](C)(NC(=O)[C@H](C)NC(=O)[C@H](CCCCN)NC(=O)CNC(=O)[C@H](Cc2ccccc2)NC(=O)[C@H](CCCCN)NC(=O)[C@H](CCCCN)NC(=O)[C@H](CCCCN)NC(=O)[C@H](CCCCN)NC(=O)[C@H](CCCCN)NC(=O)[C@]2(C)CCCC=CCCC[C@](C)(NC(=O)CN)C(=O)NCC(=O)N[C@@H](CCCCN)C(=O)N[C@@H](Cc3ccccc3)C(=O)N2)CCCC=CCCC[C@@](C)(C(=O)N[C@@H](C)C(=O)N[C@@H](CCCCN)C(=O)N[C@@H](CCCCN)C(=O)NCCOCCOCCC(N)=O)NC(=O)[C@H](CCC(=O)O)NC(=O)CNC1=O [compound 72] (H-G[S5]GKF[S5]KKKKKFGKA[S5]VGE[S5]AKK[PEG2]-NH2; staple 2-6, 16-20)	275 (≈ 101 µM)
